# pKi: −log10 of the molar value.
# Tests used:
# Type in all cases: biochemical
# hCA I = target: T1, hCA I (Homo sapiens, UniProt P00915); experiment: stopped-flow CO2 hydrase assay, hCA I; settings: recombinant enzyme, 15 min preincubation, pH 8.3, mean from 3 assays
# T1 construct: made in house
# Experimental: (§1) An Applied Photophysics stopped-flow instrument (Applied Photophysics, Leatherhead, UK) was used for assaying the CA-catalyzed CO2 hydration activity [31]. […] The uncatalyzed rates were determined in the same manner and subtracted from the total observed rates. Stock solutions of inhibitor (0.1 mM) were prepared in distilled-deionized water and dilutions up to 0.005 nM were done thereafter with the assay buffer. Inhibitor and enzyme solutions were preincubated together for 15 min at room temperature prior to assay, in order to allow formation of the E–I complex. The inhibition constants were obtained by non-linear least-squares methods using PRISM 3 and the ChengPrusoff equation, as reported earlier, and represent the mean from at least three different determinations. All CA isozymes were recombinant ones obtained in-house.
# hCA II = target: T2, hCA II (Homo sapiens, UniProt P00918); experiment: stopped-flow CO2 hydrase assay, hCA II; settings: recombinant enzyme, 15 min preincubation, pH 8.3, mean from 3 assays
# T2 construct: made in house
# Experimental: as §1
# hCA IV = target: T3, hCA IV (Homo sapiens, UniProt P22748); experiment: stopped-flow CO2 hydrase assay, hCA IV; settings: recombinant enzyme, 15 min preincubation, pH 8.3, mean from 3 assays
# T3 construct: made in house
# T3 sequence (P22748 19-312): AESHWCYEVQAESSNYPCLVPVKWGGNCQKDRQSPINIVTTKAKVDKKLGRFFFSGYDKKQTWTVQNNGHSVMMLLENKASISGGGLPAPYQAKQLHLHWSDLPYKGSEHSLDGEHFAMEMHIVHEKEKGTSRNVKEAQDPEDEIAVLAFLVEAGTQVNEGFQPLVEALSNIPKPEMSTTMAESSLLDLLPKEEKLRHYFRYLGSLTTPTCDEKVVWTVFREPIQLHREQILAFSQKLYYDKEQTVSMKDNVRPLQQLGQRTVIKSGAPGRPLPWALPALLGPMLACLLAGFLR
# Experimental: as §1
# hCA IX = target: T4, hCA IX (Homo sapiens, UniProt Q16790); experiment: stopped-flow CO2 hydrase assay, hCA IX; settings: for Selectivity II/IX: ratio Ki hCA II / Ki hCA IX; for pKi: recombinant enzyme, 15 min preincubation, pH 8.3, mean from 3 assays
# T4 construct: made in house
# Experimental: as §1
# hCA XII = target: T5, hCA XII (Homo sapiens, UniProt O43570); experiment: stopped-flow CO2 hydrase assay, hCA XII; settings: for Selectivity II/XII: ratio Ki hCA II / Ki hCA XII; for pKi: recombinant enzyme, 15 min preincubation, pH 8.3, mean from 3 assays
# T5 construct: made in house
# T5 sequence (O43570 25-354): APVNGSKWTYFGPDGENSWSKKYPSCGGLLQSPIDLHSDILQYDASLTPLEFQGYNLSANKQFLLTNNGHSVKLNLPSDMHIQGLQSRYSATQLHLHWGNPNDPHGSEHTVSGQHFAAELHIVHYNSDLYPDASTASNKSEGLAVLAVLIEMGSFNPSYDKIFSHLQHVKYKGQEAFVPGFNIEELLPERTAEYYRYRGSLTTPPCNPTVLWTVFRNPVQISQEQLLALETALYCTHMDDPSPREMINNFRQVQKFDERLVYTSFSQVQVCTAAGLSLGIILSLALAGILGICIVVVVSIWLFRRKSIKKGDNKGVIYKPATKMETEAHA
# Experimental: as §1
# T1 sequence (P00915 whole entry): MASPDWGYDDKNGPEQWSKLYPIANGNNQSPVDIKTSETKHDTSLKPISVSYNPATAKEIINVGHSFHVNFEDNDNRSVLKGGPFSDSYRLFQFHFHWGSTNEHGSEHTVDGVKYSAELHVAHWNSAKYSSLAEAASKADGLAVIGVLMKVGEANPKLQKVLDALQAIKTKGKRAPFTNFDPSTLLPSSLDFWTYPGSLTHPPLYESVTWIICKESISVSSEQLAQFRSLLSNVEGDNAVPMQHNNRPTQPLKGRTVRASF
smiles,measurement,setting,value
CC(Nc1nc(Nc2ccc(S(N)(=O)=O)cc2)nc(NC(C)C(=O)O)n1)C(=O)O (stereo not drawn) [compound 4],pKi,hCA I,5.26
same,pKi,hCA II,6.11
same,pKi,hCA IV,7.06
same,Selectivity II/IX,hCA IX,1.52
same,pKi,hCA IX,6.29
same,Selectivity II/XII,hCA XII,88.10
same,pKi,hCA XII,8.05
NS(=O)(=O)c1ccc(Nc2nc(NC(Cc3ccc(O)cc3)C(=O)O)nc(NC(Cc3ccc(O)cc3)C(=O)O)n2)cc1 (stereo not drawn) [compound 5],pKi,hCA I,7.01
same,pKi,hCA II,8.44
same,pKi,hCA IV,7.13
same,Selectivity II/IX,hCA IX,0.06
same,pKi,hCA IX,7.24
same,Selectivity II/XII,hCA XII,0.40
same,pKi,hCA XII,8.03
NS(=O)(=O)c1ccc(Nc2nc(N[C@@H](Cc3c[nH]c4ccccc34)C(=O)O)nc(N[C@@H](Cc3c[nH]c4ccccc34)C(=O)O)n2)cc1 [compound 6],pKi,hCA I,7.32
same,pKi,hCA II,8.79
same,pKi,hCA IV,7.23
same,Selectivity II/IX,hCA IX,0.04
same,pKi,hCA IX,7.34
same,Selectivity II/XII,hCA XII,0.20
same,pKi,hCA XII,8.09
NS(=O)(=O)c1ccc(Nc2nc(NC(CO)C(=O)O)nc(NC(CO)C(=O)O)n2)cc1 (stereo not drawn) [compound 7],pKi,hCA I,5.18
same,pKi,hCA II,6.28
same,pKi,hCA IV,5.06
same,Selectivity II/IX,hCA IX,1.12
same,pKi,hCA IX,6.33
same,Selectivity II/XII,hCA XII,7.30
same,pKi,hCA XII,7.14
CC(O)C(Nc1nc(Nc2ccc(S(N)(=O)=O)cc2)nc(NC(C(=O)O)C(C)O)n1)C(=O)O (stereo not drawn) [compound 8],pKi,hCA I,5.14
same,pKi,hCA II,6.04
same,pKi,hCA IV,5.31
same,Selectivity II/IX,hCA IX,1.04
same,pKi,hCA IX,6.06
same,Selectivity II/XII,hCA XII,26.10
same,pKi,hCA XII,7.46
NC(=O)CC(Nc1nc(Nc2ccc(S(N)(=O)=O)cc2)nc(NC(CC(N)=O)C(=O)O)n1)C(=O)O (stereo not drawn) [compound 9],pKi,hCA I,< 5.00
same,pKi,hCA II,6.18
same,pKi,hCA IV,5.27
same,Selectivity II/IX,hCA IX,0.73
same,pKi,hCA IX,6.05
same,Selectivity II/XII,hCA XII,17.10
same,pKi,hCA XII,7.42
NC(=O)CCC(Nc1nc(Nc2ccc(S(N)(=O)=O)cc2)nc(NC(CCC(N)=O)C(=O)O)n1)C(=O)O (stereo not drawn) [compound 10],pKi,hCA I,5.04
same,pKi,hCA II,6.11
same,pKi,hCA IV,5.08
same,Selectivity II/IX,hCA IX,1.24
same,pKi,hCA IX,6.20
same,Selectivity II/XII,hCA XII,11.30
same,pKi,hCA XII,7.17
"CC(Nc1nc(NCc2ccc(S(N)(=O)=O)cc2)nc(NC(C)C(=O)O)n1)C(=O)O (stereo not drawn) [compound 11, 2,2′-[(6-({4-sulfamoylbenzyl}amino)-1,3,5-triazine-2,4-diyl)diimino]dipropanoic acid]",pKi,hCA I,6.20
same,pKi,hCA II,6.74
same,pKi,hCA IV,6.33
same,Selectivity II/IX,hCA IX,2.87
same,pKi,hCA IX,7.20
same,Selectivity II/XII,hCA XII,19.60
same,pKi,hCA XII,8.03
"NS(=O)(=O)c1ccc(CNc2nc(NC(Cc3ccc(O)cc3)C(=O)O)nc(NC(Cc3ccc(O)cc3)C(=O)O)n2)cc1 (stereo not drawn) [compound 12, 2,2′-[(6-({4-sulfamoylbenzyl}amino)-1,3,5-triazine-2,4-diyl)diimino]bis(3-(4-hydroxyphenyl)propanoic acid)]",pKi,hCA I,7.12
same,pKi,hCA II,7.27
same,pKi,hCA IV,6.61
same,Selectivity II/IX,hCA IX,0.61
same,pKi,hCA IX,7.06
same,Selectivity II/XII,hCA XII,6.10
same,pKi,hCA XII,8.06
"NS(=O)(=O)c1ccc(CNc2nc(NC(Cc3c[nH]c4ccccc34)C(=O)O)nc(NC(Cc3c[nH]c4ccccc34)C(=O)O)n2)cc1 (stereo not drawn) [compound 13, 2,2′-[(6-({4-sulfamoylbenzyl}amino)-1,3,5-triazine-2,4-diyl)diimino]bis(3-(1H-indol-3-yl)propanoic acid)]",pKi,hCA I,7.52
same,pKi,hCA II,8.21
same,pKi,hCA IV,7.03
same,Selectivity II/IX,hCA IX,0.09
same,pKi,hCA IX,7.18
same,Selectivity II/XII,hCA XII,0.70
same,pKi,hCA XII,8.07
"NS(=O)(=O)c1ccc(CNc2nc(NC(CO)C(=O)O)nc(NC(CO)C(=O)O)n2)cc1 (stereo not drawn) [compound 14, 2,2′-[(6-({4-sulfamoylbenzyl}amino)-1,3,5-triazine-2,4-diyl)diimino]bis(3-hydroxypropanoic acid)]",pKi,hCA I,6.19
same,pKi,hCA II,6.60
same,pKi,hCA IV,5.21
same,Selectivity II/IX,hCA IX,0.96
same,pKi,hCA IX,6.58
same,Selectivity II/XII,hCA XII,3.10
same,pKi,hCA XII,7.09
"CC(O)C(Nc1nc(NCc2ccc(S(N)(=O)=O)cc2)nc(NC(C(=O)O)C(C)O)n1)C(=O)O (stereo not drawn) [compound 15, 2,2′-[(6-({4-sulfamoylbenzyl}amino)-1,3,5-triazine-2,4-diyl)diimino]bis(3-hydroxybutanoic acid)]",pKi,hCA I,6.16
same,pKi,hCA II,7.12
same,pKi,hCA IV,< 5.00
same,Selectivity II/IX,hCA IX,0.21
same,pKi,hCA IX,6.44
same,Selectivity II/XII,hCA XII,1.70
same,pKi,hCA XII,7.35
"NC(=O)CC(Nc1nc(NCc2ccc(S(N)(=O)=O)cc2)nc(NC(CC(N)=O)C(=O)O)n1)C(=O)O (stereo not drawn) [compound 16, 2,2′-[(6-({4-sulfamoylbenzyl}amino)-1,3,5-triazine-2,4-diyl)diimino]bis(3-carbamoylpropanoic acid)]",pKi,hCA I,6.08
same,pKi,hCA II,6.60
same,pKi,hCA IV,< 5.00
same,Selectivity II/IX,hCA IX,2.63
same,pKi,hCA IX,7.02
same,Selectivity II/XII,hCA XII,5.70
same,pKi,hCA XII,7.36
"NC(=O)CCC(Nc1nc(NCc2ccc(S(N)(=O)=O)cc2)nc(NC(CCC(N)=O)C(=O)O)n1)C(=O)O (stereo not drawn) [compound 17, 2,2′-[(6-({4-sulfamoylbenzyl}amino)-1,3,5-triazine-2,4-diyl)diimino]bis(4-carbamoylbutanoic acid)]",pKi,hCA I,6.16
same,pKi,hCA II,6.62
same,pKi,hCA IV,< 5.00
same,Selectivity II/IX,hCA IX,0.52
same,pKi,hCA IX,6.34
same,Selectivity II/XII,hCA XII,7.00
same,pKi,hCA XII,7.46
"CC(Nc1nc(NCCc2ccc(S(N)(=O)=O)cc2)nc(NC(C)C(=O)O)n1)C(=O)O (stereo not drawn) [compound 18, 2,2′-[(6-({2-(4-sulfamoylphenyl)ethyl}amino)-1,3,5-triazine-2,4-diyl)diimino]dipropanoic acid]",pKi,hCA I,6.10
same,pKi,hCA II,6.77
same,pKi,hCA IV,5.41
same,pKi,hCA IX,7.10
"NS(=O)(=O)c1ccc(CCNc2nc(NC(Cc3ccc(O)cc3)C(=O)O)nc(NC(Cc3ccc(O)cc3)C(=O)O)n2)cc1 (stereo not drawn) [compound 19, 2,2′-[(6-({2-(4-sulfamoylphenyl)ethyl}amino)-1,3,5-triazine-2,4-diyl)diimino]bis(3-(4-hydroxyphenyl)propanoic acid)]",pKi,hCA I,7.22
same,pKi,hCA II,7.89
same,pKi,hCA IV,6.06
same,Selectivity II/IX,hCA IX,0.21
same,pKi,hCA IX,7.21
same,Selectivity II/XII,hCA XII,1.70
same,pKi,hCA XII,8.12
"NS(=O)(=O)c1ccc(CCNc2nc(NC(Cc3c[nH]c4ccccc34)C(=O)O)nc(NC(Cc3c[nH]c4ccccc34)C(=O)O)n2)cc1 (stereo not drawn) [compound 20, 2,2′-[(6-({2-(4-sulfamoylphenyl)ethyl}amino)-1,3,5-triazine-2,4-diyl)diimino]bis(3-(1H-indol-3-yl)propanoic acid)]",pKi,hCA I,7.38
same,pKi,hCA II,8.45
same,pKi,hCA IV,6.27
same,Selectivity II/IX,hCA IX,0.01
same,pKi,hCA IX,6.51
same,Selectivity II/XII,hCA XII,0.40
same,pKi,hCA XII,8.08
"NS(=O)(=O)c1ccc(CCNc2nc(NC(CO)C(=O)O)nc(NC(CO)C(=O)O)n2)cc1 (stereo not drawn) [compound 21, 2,2′-[(6-({2-(4-sulfamoylphenyl)ethyl}amino)-1,3,5-triazine-2,4-diyl)diimino]bis(3-hydroxypropanoic acid)]",pKi,hCA I,6.09
same,pKi,hCA II,6.56
same,pKi,hCA IV,< 5.00
same,Selectivity II/IX,hCA IX,3.19
same,pKi,hCA IX,7.07
same,Selectivity II/XII,hCA XII,10.10
same,pKi,hCA XII,7.57
"CC(O)C(Nc1nc(NCCc2ccc(S(N)(=O)=O)cc2)nc(NC(C(=O)O)C(C)O)n1)C(=O)O (stereo not drawn) [compound 22, 2,2′-[(6-({2-(4-sulfamoylphenyl)ethyl}amino)-1,3,5-triazine-2,4-diyl)diimino]bis(3-hydroxybutanoic acid)]",pKi,hCA I,6.08
same,pKi,hCA II,6.59
same,pKi,hCA IV,< 5.00
same,Selectivity II/IX,hCA IX,2.89
same,pKi,hCA IX,7.05
same,Selectivity II/XII,hCA XII,4.10
same,pKi,hCA XII,7.20
"NC(=O)CC(Nc1nc(NCCc2ccc(S(N)(=O)=O)cc2)nc(NC(CC(N)=O)C(=O)O)n1)C(=O)O (stereo not drawn) [compound 23, 2,2′-[(6-({2-(4-sulfamoylphenyl)ethyl}amino)-1,3,5-triazine-2,4-diyl)diimino]bis(3-carbamoylpropanoic acid)]",pKi,hCA I,6.05
same,pKi,hCA II,6.87
same,pKi,hCA IV,< 5.00
same,Selectivity II/IX,hCA IX,0.36
same,pKi,hCA IX,6.42
same,Selectivity II/XII,hCA XII,2.60
same,pKi,hCA XII,7.27
"NC(=O)CCC(Nc1nc(NCCc2ccc(S(N)(=O)=O)cc2)nc(NC(CCC(N)=O)C(=O)O)n1)C(=O)O (stereo not drawn) [compound 24, 2,2′-[(6-({2-(4-sulfamoylphenyl)ethyl}amino)-1,3,5-triazine-2,4-diyl)diimino]bis(4-carbamoylbutanoic acid)]",pKi,hCA I,6.16
same,pKi,hCA II,6.72
same,pKi,hCA IV,< 5.00
same,Selectivity II/IX,hCA IX,0.40
same,pKi,hCA IX,6.32
same,Selectivity II/XII,hCA XII,3.40
same,pKi,hCA XII,7.24
